In ChEMBL document CHEMBL1921674, “Novel tricyclic inhibitors of IKK2: discovery and SAR leading to the identification of 2-methoxy-N-((6-(1-methyl-4-(methylamino)-1,6-dihydroimidazo[4,5-d]pyrrolo[2,3-b]pyridin-7-yl)pyridin-2-yl)methyl)acetamide (BMS-066)” (Bioorg Med Chem Lett, 2011):
Activity calls are given as the source filed them. No cut-off for these calls is given here.

Assays:
Blood [1] = assay: Antiinflammatory activity in mouse whole blood assessed as inhibition of LPS-induced TNFalpha release treated for 45 mins before LPS challenge measured after 6 hrs by ELISA; assay type: functional, tissue-based
[2] = AUC in Sprague-Dawley rat plasma at 2 mg/kg, iv after 8 hrs; assay type: ADME, organism-based; set-up: time < 8 hr, dose 2 mg/kg, route intravenous
[3] = Cmax in mouse at 3 mg/kg, po; assay type: ADME, organism-based; set-up: dose 3 mg/kg, route oral; settings: in vivo
Mus musculus [4] = assay: Reduction in TNBS-induced colitis in mouse […] model assessed as decrease in tissue damage at 10 mg/kg administered intrarectally 1 day before TNBS challenge twice daily for 4 days by hematoxylin-eosin staining relative to control; assay type: functional, organism-based; set-up: dose 10 mg/kg
[5] = AUC in Lewis rat at 10 mg/kg, po; assay type: ADME, organism-based; set-up: dose 10 mg/kg, route oral; settings: plasma
Cytochrome P450 2D6 = Cytochrome P450 2D6 (Homo sapiens, UniProt P10635); assay: Inhibition of CYP2D6; assay type: ADME
[6] = Clearance in mouse at 2 mg/kg, iv; assay type: ADME, organism-based; set-up: dose 2 mg/kg, route intravenous; settings: in vivo
[7] = AUC in Sprague-Dawley rat intestine at 2 mg/kg, iv after 8 hrs; assay type: ADME, organism-based; set-up: time < 8 hr, dose 2 mg/kg, route intravenous
Mus musculus [8] = assay: Reduction in TNBS-induced colitis in mouse […] model assessed as decrease of body weight loss at 10 mg/kg, administered intrarectally 1 day before TNBS challenge twice daily for 4 days; assay type: functional, organism-based; set-up: dose 10 mg/kg
Blood [9] = assay: Antiinflammatory activity in human whole blood assessed as inhibition of LPS-induced TNFalpha release treated for 45 mins before LPS challenge measured after 6 hrs by ELISA; assay type: functional, tissue-based; settings: Homo sapiens, Blood
[10] = target: T1, Inhibitor of nuclear factor kappa-B kinase subunit beta (Homo sapiens, UniProt O14920); assay: Inhibition of human IKK2-mediated GST-IkappaBalpha protein fusion phosphorylation
T1 sequence (O14920 whole entry): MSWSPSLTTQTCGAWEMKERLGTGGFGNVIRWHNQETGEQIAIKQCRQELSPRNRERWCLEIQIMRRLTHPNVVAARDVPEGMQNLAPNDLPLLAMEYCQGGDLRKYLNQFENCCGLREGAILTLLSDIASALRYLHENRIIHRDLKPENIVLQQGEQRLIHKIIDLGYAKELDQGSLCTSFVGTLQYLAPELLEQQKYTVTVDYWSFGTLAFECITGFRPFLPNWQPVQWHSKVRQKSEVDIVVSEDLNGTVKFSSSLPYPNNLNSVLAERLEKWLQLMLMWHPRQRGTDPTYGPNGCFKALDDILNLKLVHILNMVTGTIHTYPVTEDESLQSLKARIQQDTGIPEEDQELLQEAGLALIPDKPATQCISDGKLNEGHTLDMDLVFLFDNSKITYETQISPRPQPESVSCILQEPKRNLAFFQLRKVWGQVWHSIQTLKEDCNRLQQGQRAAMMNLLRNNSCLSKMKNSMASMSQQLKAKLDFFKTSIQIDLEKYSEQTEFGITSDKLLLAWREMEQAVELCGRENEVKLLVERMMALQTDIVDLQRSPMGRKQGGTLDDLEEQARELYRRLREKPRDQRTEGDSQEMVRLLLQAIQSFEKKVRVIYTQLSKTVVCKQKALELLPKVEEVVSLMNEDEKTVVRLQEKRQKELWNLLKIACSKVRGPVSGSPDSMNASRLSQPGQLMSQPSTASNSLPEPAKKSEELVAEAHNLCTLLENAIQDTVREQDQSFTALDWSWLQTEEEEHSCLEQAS

Chain of Cytochrome P450 2D6 (P10635 whole entry): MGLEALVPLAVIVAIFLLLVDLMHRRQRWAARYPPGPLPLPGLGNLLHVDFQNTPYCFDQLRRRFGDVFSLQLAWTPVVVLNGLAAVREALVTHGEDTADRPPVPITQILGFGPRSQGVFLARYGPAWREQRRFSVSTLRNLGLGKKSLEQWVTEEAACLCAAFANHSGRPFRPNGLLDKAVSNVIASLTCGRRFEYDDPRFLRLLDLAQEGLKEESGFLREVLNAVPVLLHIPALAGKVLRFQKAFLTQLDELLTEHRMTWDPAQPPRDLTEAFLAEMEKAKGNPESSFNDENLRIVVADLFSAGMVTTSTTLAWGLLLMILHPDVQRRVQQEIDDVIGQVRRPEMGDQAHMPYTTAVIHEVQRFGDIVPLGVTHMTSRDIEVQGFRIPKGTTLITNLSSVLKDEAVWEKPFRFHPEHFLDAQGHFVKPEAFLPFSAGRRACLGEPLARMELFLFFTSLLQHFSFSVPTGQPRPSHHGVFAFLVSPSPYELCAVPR

Molecule `CNc1nc2[nH]c(-c3cccc(CNC(=O)COC)n3)cc2c2c1ncn2C` has an IC50 (Blood [1]) of 1.2 µM, an AUC at 8 h [2] of 13 µM·h and a Cmax [3] of 1600 nM. The Activity (Mus musculus [4]) was “Active”, the AUC [5] was 89 µM·h and the IC50 (Cytochrome P450 2D6) was > 40 µM. For the same molecule, the clearance [6] was 52 mL/min/kg, the AUC at 8 h [7] was 156 µM·h and the Activity (Mus musculus [8]) was “Active”. It also gave an IC50 (Blood [9]) of 1 µM and an IC50 [10] of 0.009 µM.
